Source: US8178688B2, “Benzamidine derivatives, process for the preparation thereof and pharmaceutical composition comprising the same” (Dong Wha Pharmaceutical Co., Ltd., priority 2004, dated 2012)
Where two headings read alike, the source gives them in different places. Marks after values point to notes of the source that are not given here.

What was measured:
[1] = system: rat models subjected to rib fracture; experiment: Effect of promoting fracture healing in rib fracture-induced rat model (callus volume, callus osteoid volume); assay type: in vivo, SD rats; conditions: for Changes on callus volume (mm^3): 200 mg/kg oral once a day for 2 weeks from day 2 of surgery, 8th and 9th ribs, vehicle control 37.22 ± 8.23; for Changes on callus osteoid volume (OV/callus, %): 200 mg/kg oral once a day for 2 weeks, 8th rib, vehicle control 35.88 ± 5.06
Protocol: The benzamidine compounds were assayed for therapeutic effect on bone fracture in rat models subjected to rib fracture. Benzamidine derivates are dosed from 2 days after operation for 2 weeks, and the changes on the volume and histology of callus were observed.
A total of 54 SD rats (8 weeks old upon receipt, Jung Ang Lab. Animal Co., Korea) were used. While being housed at a density of three to a plastic cage, the experimental animals were kept in a breeding room under controlled temperature (20-25° C.) and humidity (30-35%). Under light-dark cycles of 12 hours, the rats were allowed to have free access to feedstuff and tap water.
200 mg of benzamidine compounds (Methansulfonic acid or Hydrochloride) were completely dissolved in 5 ml of sterilized distilled water. The benzamidine derivatives in the solutions was orally administered at doses of 200 mg per kg of body weight once a day for 2 weeks from day 2 of the surgery.
8th and 9th rib of each animal was exposed by general operation under ketamine HCl and xylazine HCl anesthesia, and the exposed ribs were crossly dissected using surgical scissors. After rib-fracture, surgical wounds were closed with general skin suture.
8th and 9th ribs of each animal were separated at sacrifice and then the long axis and short axis of callus were calculated as mm units. The volume of callus was calculated as following Equation 2. Callus volume(mm^3)=(a×b^2)/2 Equation 2 • a: long diameter of bony callus • b: short diameter of bony callus
The 8th rib including fracture sites of each rat was separated and fixed in 10% neutral buffered formalin, and then decalcified in decalcifying solution (24.4% formic acid, and 0.5N sodium hydroxide) for 5 days (mixed decalcifying solution was exchanges once a day for 5 days). After decalcification, the rib was embedded in paraffin, sectioned (3˜4 μm) and stained with hematoxylin-eosin or Masson's trichrome for composition of callus observation.
Osteloid volume (OV/callus) in callus regions of prepared histological specimens were detected as % levels using automated image analysis (analySIS Image Processing; SIS, Germany) under microscopy.

[2] = system: osteoclast differentiation; experiment: Inhibitory effects on osteoclast differentiation (co-culture of bone marrow cells with osteoblast, TRAP staining); assay type: cell-based, mice; conditions: co-culture of bone marrow cells and osteoblast, 7 days, TRAP-positive osteoclasts versus controls; for inhibition at 1 µM: Mus musculus, Osteoclast, 168 h, read-out: % inhibitory activity on osteoclastogenesis
Procedure, shortened: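 Bone marrow cells from 6–8-week male ddY mice co-cultured with neonatal ICR mouse calvarial osteoblasts in α-MEM/FBS with dexamethasone (10^−7M) and vitamin D3 (10^−8M) for 7 days, compound and medium renewed every 2–3 days. TRAP-positive cells with ≥3 nuclei counted; inhibition given as percent of control.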

Row | SMILES | Changes on callus volume (mm^3) [1] | Changes on callus osteoid volume (OV/callus, %) [1] [%] | inhibition at 1 µM ([2]; 1 μm) [%] | % inhibitory activity on osteoclastogenesis ([2]; 1 μm) [%] | inhibition at 1 µM ([2]; 1 m) [%]
1 | Cc1sc(-c2cccnc2)nc1-c1ccc(OCCCCCOc2ccc(C(=N)NO)cc2)cc1 [Example 13, N-hydroxy-4-(5-[4-(5-methyl-2-pyridin-3-yl-1,3-thiazol-4-yl)phenoxy]pentoxy)-benzamidine] | 23.15 ± 7.85* mm^3 | 43.19 ± 4.47 | 73.5 | – | –
2 | CC(C)c1nc(-c2ccc(OCCCCCOc3ccc(C(=N)NO)cc3)cc2)c(CC2CCCC2)s1 [Example 47, N-hydroxy-4-(5-[4-(5-cyclopentylnnethyl-2-isopropyl-1,3-thiazol-4-yl)phenoxy]pentoxy)-benzamidine] | 27.56 ± 6.94** mm^3 | 45.69 ± 7.07 | – | 90.0 | –
3 | CCCN(CCC)c1nc(-c2ccc(OCCCCCOc3ccc(C(=N)NO)cc3)cc2)c(CC)s1 [Example 138, N-hydroxy-4-(5-[4-(2-dipropylamino-5-ethyl-1,3-thiazol-4-yl)phenoxy]pentoxy)-benzamidine] | 27.34 ± 5.46* mm^3 | 53.83 ± 7.84 | – | – | 91
